This is an account of results in PMC10424186 (Journal of Medicinal Chemistry, 2023).

Like-named read-outs stand apart in the source and are kept apart here.

The target in assay [1] is human JMJD5 (Homo sapiens, UniProt Q8N371). Put plainly: SPE-MS JMJD5 inhibition assay (hydroxylation of RPS6 128–148 peptide). The class given is biochemical. The text has this: Synthetic peptides with sequences based on reported human 2OG oxygenase substrates were used in SPE-MS inhibition assays: RPS6, residues 128–148, for JMJD5;[42] HIF-α CODD, residues 558–574, for PHD2;[70] HIF-α CAD, residues 788–822, for FIH;[70] H3_1-15K9me3, histone 3 (H3), residues 1–15 with K9 of H3-bearing three methyl groups at the N^ε-position, K4 of H3 substituted by an alanine residue, and K14 of H3 by an isoleucine residue,[73] for KDM4E; and RPL27A, residues 31–49, for RIOX2 (Mina53).[44] All peptides were prepared as C-terminal amides by GL Biochem (Shanghai) Ltd. A synthetic thioether-linked cyclic peptide, hFX-CP101–119,[48] which was designed based on the reported cellular AspH substrate human coagulation factor X (hFX, residues 101–119; C101 was substituted for a D-alanine residue and C112 for a serine residue),[79] was used as AspH substrate; it was prepared with a C-terminal amide according to literature protocols.[80]
Cosubstrate/cofactor stock solutions [L-ascorbic acid/LAA: 50 mM in MQ-grade water; 2-oxoglutarate/2OG: 10 mM in MQ-grade water; ammonium iron(II) sulfate hexahydrate/FAS/(NH4)2Fe(SO4)2·6H2O: 400 mM in 20 mM HCl diluted to 1 mM in MQ-grade water] were freshly prepared from commercial solids (Sigma-Aldrich) on the day the assays were performed. The JMJD5,[42] PHD2,[70] FIH,[70] KDM4E,[72],[73] RIOX2,[44] and AspH[45] SPE-MS inhibition assays were performed as described in the cited literature, using isolated recombinant human enzymes (His6-thioredoxin-JMJD5,[42] His6-PHD2_181–426,[70] His6-FIH,[70] His6-KDM4E,[72],[73] His6-RIOX2_26–465,[87],[88] and His6-AspH315–758[48],[80]) and synthetic peptide substrates (RPS6_128–148 for JMJD5;[42] HIF-α CODD558–574 for PHD2;[70] HIF-α CAD788–822 for FIH;[70] H3_1–15K9me3 for KDM4E;[73] RPL27A31–49 for RIOX2;[44],[71] and hFX-CP101–119 for AspH;[45],[48] see above). For JMJD5, PHD2, FIH, RIOX2, and AspH, substrate hydroxylation was monitored (+16 Da mass shift), while for the KDM4E substrate, demethylation was monitored (−14 Da mass shift) by SPE-MS.

The target of assay [2] is T1, PHD2 (Homo sapiens, UniProt Q9GZT9).
T1 construct: His6-PHD2_181–426; made in house; host or cells: Escherichia coli
Put plainly: SPE-MS PHD2 inhibition assay (HIF-1α CODD hydroxylation). The class given is biochemical. The following applies: Table 2; PHD2 181–426 […], 5.0 μM HIF-1α CODD; n = 2, mean ± SD. How it is done:
(§1) H3_1-15K9me3, histone 3 (H3), residues 1–15 with K9 of H3-bearing three methyl groups at the N^ε-position, K4 of H3 substituted by an alanine residue, and K14 of H3 by an isoleucine residue,[73] for KDM4E; and RPL27A, residues 31–49, for RIOX2 (Mina53).[44]
(§2) Cosubstrate/cofactor stock solutions [L-ascorbic acid/LAA: 50 mM in MQ-grade water; 2-oxoglutarate/2OG: 10 mM in MQ-grade water; ammonium iron(II) sulfate hexahydrate/FAS/(NH4)2Fe(SO4)2·6H2O: 400 mM in 20 mM HCl diluted to 1 mM in MQ-grade water] were freshly prepared from commercial solids (Sigma-Aldrich) on the day the assays were performed. The JMJD5,[42] PHD2,[70] FIH,[70] KDM4E,[72],[73] RIOX2,[44] and AspH[45] […] For JMJD5, PHD2, FIH, RIOX2, and AspH, substrate hydroxylation was monitored (+16 Da mass shift), while for the KDM4E substrate, demethylation was monitored (−14 Da mass shift) by SPE-MS.

Assay [3] deals with T2, AspH (Homo sapiens, UniProt Q12797).
T2 construct: N-terminally His6-tagged AspH315–758; made in house; host or cells: Escherichia coli
T2 sequence (Q12797 315-758): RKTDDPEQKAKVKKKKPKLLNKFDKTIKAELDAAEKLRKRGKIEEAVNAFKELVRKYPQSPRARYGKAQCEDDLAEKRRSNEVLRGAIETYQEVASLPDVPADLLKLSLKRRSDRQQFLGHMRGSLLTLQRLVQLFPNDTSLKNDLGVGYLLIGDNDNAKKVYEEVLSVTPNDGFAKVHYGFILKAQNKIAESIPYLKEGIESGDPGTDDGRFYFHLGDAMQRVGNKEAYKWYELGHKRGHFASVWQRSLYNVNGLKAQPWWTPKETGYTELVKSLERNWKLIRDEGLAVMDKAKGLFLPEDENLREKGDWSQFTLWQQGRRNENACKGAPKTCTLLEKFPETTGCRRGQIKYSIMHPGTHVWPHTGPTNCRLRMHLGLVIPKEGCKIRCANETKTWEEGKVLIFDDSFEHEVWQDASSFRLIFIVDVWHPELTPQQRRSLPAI
Put plainly: SPE-MS AspH inhibition assay (hFX-CP101–119 hydroxylation). The class given is biochemical. The following applies: Table 2; His6-AspH315–758 0.05 μM, 1.0 μM hFX-CP101–119; n = 2, mean ± SD. How it is done:
as §1, §2

In assay [4] the target is T3, KDM4E (Homo sapiens, UniProt B2RXH2).
T3 construct: made in house; host or cells: Escherichia coli
T3 sequence (B2RXH2 1-506): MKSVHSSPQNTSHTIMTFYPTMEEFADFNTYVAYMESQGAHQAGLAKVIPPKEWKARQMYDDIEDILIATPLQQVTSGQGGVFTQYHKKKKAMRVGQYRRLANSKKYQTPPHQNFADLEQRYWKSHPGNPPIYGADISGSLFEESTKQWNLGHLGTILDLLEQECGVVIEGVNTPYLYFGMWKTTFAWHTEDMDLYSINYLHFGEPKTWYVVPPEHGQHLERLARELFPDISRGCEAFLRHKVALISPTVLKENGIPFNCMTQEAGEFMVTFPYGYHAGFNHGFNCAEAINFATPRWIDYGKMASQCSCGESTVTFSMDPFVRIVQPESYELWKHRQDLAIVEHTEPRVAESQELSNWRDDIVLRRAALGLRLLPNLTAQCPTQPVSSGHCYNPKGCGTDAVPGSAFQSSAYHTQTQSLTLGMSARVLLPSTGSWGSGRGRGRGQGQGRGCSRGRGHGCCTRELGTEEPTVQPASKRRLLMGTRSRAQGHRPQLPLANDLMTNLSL
Put plainly: SPE-MS KDM4E inhibition assay (demethylation of H3 1–15 K9me3). The class given is biochemical. The following applies: Table 2, 10.0 μM H3 1–15 K9me3, n = 2, mean ± SD. The method, then:
as §1, §2

In assay [5] the target is T3, KDM4E. The following applies: Supporting Table S1; reported FDH-coupled spectrophotometric assay; ref SI 17; cited from earlier work.
Setting [6] is: isolated recombinant JMJD5, SPE-MS.
Where [7] appears, read: isolated recombinant JMJD5, SPE-MS, approximate values, read-out: IC50 for JMJD5 inhibition.
Where [8] appears, read: supplementary CSV, read-out: IC50 JMJD5.
The mark [9] stands for this setting: Table 2, JMJD5 […], 2OG 2.0 μM, Fe(II) 2.0 μM, LAA 100 μM, RPS6 128–148 2.0 μM, n = 3, mean ± SD, read-out: IC50 JMJD5.
The mark [10] stands for this setting: Supporting Table S1, JMJD5 […], 2OG 2.0 μM, RPS6 128-148 2.0 μM, pH 7.5, 20 °C, n = 3, mean ± SD, read-out: IC50 JMJD5.

Broadly, the IC50 is the concentration that inhibits the measured activity by half.

Chain of human JMJD5 (Q8N371 whole entry, the tested form may be a part): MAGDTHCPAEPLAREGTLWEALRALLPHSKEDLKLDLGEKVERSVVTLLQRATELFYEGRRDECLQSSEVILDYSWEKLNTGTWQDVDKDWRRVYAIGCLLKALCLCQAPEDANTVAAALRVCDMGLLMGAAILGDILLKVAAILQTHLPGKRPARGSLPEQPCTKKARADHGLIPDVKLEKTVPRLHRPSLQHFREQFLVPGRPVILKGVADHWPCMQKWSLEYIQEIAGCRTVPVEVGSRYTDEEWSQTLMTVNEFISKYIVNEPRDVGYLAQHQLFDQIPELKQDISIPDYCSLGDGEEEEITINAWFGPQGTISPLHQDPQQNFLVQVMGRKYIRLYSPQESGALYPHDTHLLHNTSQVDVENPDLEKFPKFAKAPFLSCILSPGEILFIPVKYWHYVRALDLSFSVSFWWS
T1 sequence (Q9GZT9 181-426): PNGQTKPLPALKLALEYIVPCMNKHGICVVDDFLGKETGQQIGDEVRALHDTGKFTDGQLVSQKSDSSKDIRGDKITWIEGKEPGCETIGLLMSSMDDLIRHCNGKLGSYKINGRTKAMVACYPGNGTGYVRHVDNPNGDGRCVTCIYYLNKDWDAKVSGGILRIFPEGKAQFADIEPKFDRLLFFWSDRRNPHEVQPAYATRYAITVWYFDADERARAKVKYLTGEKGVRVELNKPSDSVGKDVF

As to `O=C(O)c1cc(C(=O)O)c(F)cn1` [Compound 15, 5-fluoro-2,4-PDCA], the IC50 in assay [1] (Table 1, JMJD5 […], 2OG 2.0 μM, Fe(II) 2.0 μM, LAA 100 μM, RPS6 128–148 2.0 μM, pH 7.5, 20 °C, n = 3, mean ± SD, read-out: IC50 JMJD5) was 4.5 ± 0.9 µM; in assay [1] (setting [7]), around 4.5 µM; in assay [1] (setting [8]) it was 4.5 ± 0.9 µM. Besides, the “JMJD5 inhibition (in words)” value in assay [1] (setting [6]) is “inhibits”.
Take `O=C(O)c1cc(C(=O)O)c(NCc2ccccc2)cn1` [Compound 20a, 5-(benzylamino)pyridine-2,4-dicarboxylic acid]: the IC50 in assay [2] is above 50 µM; in assay [3] it was 0.5 ± 0.2 µM; in assay [4] it was 3.2 ± 1.6 µM.
Take `O=C(O)c1cc(C(=O)O)c(NCCCCc2ccccc2)cn1` [Compound 20d, 5-((4-phenylbutyl)amino)pyridine-2,4-dicarboxylic acid]: the IC50 in assay [1] (setting [9]) was 0.4 ± 0.2 µM; in assay [2], 20.4 ± 0.8 µM; in assay [3] it was 1.9 ± 0.2 µM; in assay [4], 3.6 ± 0.7 µM.
As to `CC(Nc1cnc(C(=O)O)cc1C(=O)O)c1ccccc1` (centres unmarked) [Compound 20e], the IC50 is 17.5 ± 2.5 µM in assay [1] (setting [9]); around 17.5 µM in assay [1] (setting [7]); above 50 µM in assay [2]; 5.9 ± 1.9 µM in assay [3]; 22.7 ± 0.4 µM in assay [4].
Take `O=C(O)c1cc(C(=O)O)c(NCc2ccc(C(F)(F)F)cc2)cn1` [Compound 20g]: the figures for the IC50 in assay [2], in assay [3] and in assay [4] were above 50 µM, 1.2 ± 0.1 µM and 6.2 ± 1.1 µM, respectively.
Regarding `O=C(O)c1ccnc(C(=O)O)c1Nc1ccccc1` [Compound 21], the IC50 in assay [1] (setting [10]) is above 50 µM; in assay [1] (setting [8]), above 50 µM; in assay [5] it was 19 µM.
For `O=C(O)c1ccnc(C(=O)O)c1Nc1ccccc1F` [Compound 25], the IC50 in assay [1] (setting [10]) and in assay [1] (setting [8]) was 46.9 ± 4.6 µM throughout.
On to `Nc1ccccc1Nc1c(C(=O)O)ccnc1C(=O)O` [Compound 29], for which the IC50 in assay [1] (setting [10]) stood at 39.6 µM; in assay [1] (setting [8]), 39.6 ± 11.2 µM.
For `CC(Nc1cnccc1C(=O)O)c1ccccc1` (centres unmarked) [Compound 30], in that order: above 50 µM and above 50 µM.
With `O=C(O)c1ccnc(C(=O)O)c1NCCc1ccc(Cl)cc1` [Compound 31], the IC50 in assay [1] (setting [10]) and in assay [1] (setting [8]) was 10.3 ± 3.1 µM in each case.
Take `O=C(O)c1ccncc1NCCc1ccc(Cl)cc1` [Compound 32]: the IC50 in assay [1] (setting [10]) and in assay [1] (setting [8]) was above 50 µM each time.
Regarding `COC(=O)c1ccnc(C(=O)OC)c1` [dimethyl 2,4-PDCA, reference compound], the IC50 in assay [1] (setting [10]) was above 50 µM. The “JMJD5 inhibition (in words)” value in assay [1] (setting [6]) is “does not inhibit isolated recombinant JMJD5”; in assay [1] (isolated recombinant JMJD5, SPE-MS, listed as dimethyl ester derivative of 1) it was “does not inhibit isolated recombinant JMJD5 efficiently”.
